Data set [1] concerns Mus musculus. In words: Antineuroinflammatory activity in ip dosed ICR mouse model of chronic unpredictable mild stress assessed as reduction in TNFalpha level in serum administered once a day for 1 week post 8 week of chronic unpredictable mild stress and measured after 1 week by ELISA. To be noted: dose 6-12 mg/kg, time 2.0 weeks. Format: functional, organism-based.
Data set [2] concerns Mus musculus. Put plainly: Improvement in depression-like behavior in ICR mouse model of chronic unpredictable mild stress assessed as reduction in immobility time at 6 to 24 mg/kg, ip administered once a day for 10 days post 8 week of chronic unpredictable mild stress by forced swim test. Format: functional, organism-based. As to conditions: dose 6-24 mg/kg, time 10.0 day.

Data set [3] concerns Mus musculus. Put plainly: Antidepressant activity in ICR mouse model of chronic unpredictable mild stress assessed as reduction in oxidative stress by measuring reduction in MDA level in cerebral cortex at 6 to 12 mg/kg, ip administered once a day for 1 week post 8 week of chronic unpredictable mild stress and measured after 1 week by ELISA. Format: functional, organism-based. As to conditions: dose 6-12 mg/kg, time 2.0 weeks.

The test system of data set [4] is Mus musculus. Put plainly: Antidepressant activity in ip dosed ICR mouse model of chronic unpredictable mild stress assessed as reduction in oxidative stress by measuring increase in SOD level in cerebral cortex administered once a day for 1 week post 8 week of chronic unpredictable mild stress and measured after 1 week by ELISA. To be noted: dose 6-12 mg/kg, time 2.0 weeks. Format: functional, organism-based.

In data set [5] the test system is Mus musculus. In words: Antidepressant activity in ip dosed ICR mouse model of chronic unpredictable mild stress assessed as downregulation of neuronal apoptosis by measuring reduction in caspase-3 protein level in hippocampus administered once a day for 1 week post 8 week of chronic unpredictable mild stress and measured after 1 week by Western blot analysis. In kind it is functional, organism-based. As to conditions: dose 6-24 mg/kg, time 2.0 weeks.

For data set [6], the system named is Mus musculus. In words: Improvement in depression-like behavior in ICR mouse model of chronic unpredictable mild stress assessed as reduction in immobility time at 6 to 24 mg/kg, ip administered once a day for 10 days post 8 week of chronic unpredictable mild stress by tail suspension test. Format: functional, organism-based. As to conditions: dose 6-24 mg/kg, time 10.0 day.

Data set [7] concerns Mus musculus. Put plainly: Antidepressant activity in ICR mouse model of chronic unpredictable mild stress assessed as reduction in ceramide level in hippocampus at 6 to 12 mg/kg, ip administered once a day for 1 week post 8 week of chronic unpredictable mild stress and measured after 1 week by ELISA. Format: functional, organism-based. As to conditions: dose 6-12 mg/kg, time 2.0 weeks.

A short description of data set [8]: Neurotoxicity against human SH-SY5Y cells assessed as cell survival rate at 5 to 20 uM by CCK-8 assay relative to control. Format: toxicity, cell-based. To be noted: dose 5-20 µM, read-out: Survival.
Data set [9] can be described thus: Bioavailability in male ICR mouse at 1 mg/kg, iv measured upto 480 mins by LC-MS/MS analysis. In kind it is ADME, organism-based. To be noted: in vivo.
Data set [10] deals with Mus musculus. In words: Antidepressant activity in ip dosed ICR mouse model of chronic unpredictable mild stress assessed as downregulation of neuronal apoptosis by measuring reduction in caspase-9 protein level in hippocampus administered once a day for 1 week post 8 week of chronic unpredictable mild stress and measured after 1 week by Western blot analysis. In kind it is functional, organism-based. As to conditions: dose 6-24 mg/kg, time 2.0 weeks.

For data set [11], the system named is Mus musculus. In words: Antidepressant activity in ICR mouse model of chronic unpredictable mild stress assessed as reduction in ceramide level in cerebral cortex at 6 to 12 mg/kg, ip administered once a day for 1 week post 8 week of chronic unpredictable mild stress and measured after 1 week by ELISA. In kind it is functional, organism-based. As to conditions: dose 6-12 mg/kg, time 2.0 weeks.

In data set [12] the test system is Mus musculus. Put plainly: Improvement in depression-like behavior in ICR mouse model of chronic unpredictable mild stress assessed as increase in total distance traveled in center at 6 to 24 mg/kg, ip administered once a day for 10 days post 8 week of chronic unpredictable mild stress by open field test. Format: functional, organism-based. To be noted: dose 6-24 mg/kg, time 10.0 day.

Data set [13] has as its system Mus musculus. Put plainly: Antidepressant activity in ip dosed ICR mouse model of chronic unpredictable mild stress assessed as reduction in sphingosine-1-phosphate level in cerebral cortex administered once a day for 1 week post 8 week of chronic unpredictable mild stress and measured after 1 week by ELISA. In kind it is functional, organism-based. To be noted: dose 6-12 mg/kg, time 2.0 weeks.

A short description of data set [14]: Neurotoxicity against human SH-SY5Y cells assessed as reduction in cell viability at 100 uM by CCK-8 assay. In kind it is toxicity, cell-based. On the technique in general: Tetrazolium assays rely on reduction of a dye to a coloured formazan, in cell work by metabolically active cells.

Usually bioavailability stands for dose-corrected exposure relative to a reference, in per cent.

Each structure is given as a SMILES string. Active and inactive are the calls of the source. No cut-off for these calls is given here.

As for `O=C(NO)c1cc(-c2ccc(Br)cc2)n(-c2ccc(Cl)cc2)n1`, the Activity entry with Mus musculus [1] is “Dose-Dependent Effect”; with Mus musculus [4] it was “Dose-Dependent Effect”; with Mus musculus [5], “Dose-Dependent Effect”; with Mus musculus [10], “Dose-Dependent Effect”; in the data set on Mus musculus [13], “Dose-Dependent Effect”; in [14] it was “Toxic”. Further, the result with Mus musculus [2], with Mus musculus [3], with Mus musculus [6], with Mus musculus [7], with Mus musculus [11] and in the data set on Mus musculus [12] was Active. Moreover, the viability in data set [8] was above 78%. The compound further came in with a bioavailability in [9] of 39.6%.

Source of the values: ChEMBL document CHEMBL5512696, “Discovery of a Novel ASM Direct Inhibitor with a 1,5-Diphenyl-pyrazole Scaffold and Its Antidepressant Mechanism of Action” (J Med Chem, 2024).
